# Measurements taken from patent US20140161720A1, “TREATMENT OF ANGIOGENIC- OR VASCULAR-ASSOCIATED DISEASES” (THE GENERAL HOSPITAL CORPORATION, priority 2011, published 2014).
# Entries after “also recorded” stand apart in the source; their conditions may differ.
# Columns and labels:
# [1] = system: vasculature in adult fish; test: Effect on vasculature in adult zebrafish; assay type: in vivo; conditions: mature vasculature
# [2] = system: zebrafish caudal fin regenerating vessels; test: Caudal fin amputation, blood vessel regeneration; assay type: in vivo
# Procedure: For the regeneration experiments, caudal fins of zebrafish were amputated at approximately the 50% proximal-distal level (21). The amputated fish were kept in individual 250-ml fish tanks, and at least five fish were used in each group. Staging for normal blood vessel regeneration was carried out at 25° C. with TG(fli1:EGFP)y1 fish, with the same fin ray and vessels of each fish was photographed at different time intervals during the course of the time-lapse study.
# To examine whether DAL has a similar antivascular effect on neovasculature in adult zebrafish, neovascularization was induced by amputating the caudal fin at the ˜50% proximal-distal level and fin rays and vessels were imaged from each fish over time. In control zebrafish caudal fins, amputated blood vessels healed their ends by 24 h post-amputation and then reconnected arteries and veins through anastomosis, with blood flow resuming at wound sites by 48 h after amputation (FIG. 2B).
# [3] = design: species or system female SCID mice; conditions: mouse, in vivo, ip, 37.5 mg/kg
# Procedure: To assess the anti-tumor effects of DAL, female SCID mice bearing orthotopic 4T1 or E0771 mammary tumors were treated with daily i.p. injections of 37.5 mg/kg DAL or saline. In order to calculate tumor volumes, the major and minor axis diameters were measured with calipers and the tumor volume was calculated by assuming a spherical shape based on the average of these two dimensions. The tumors were implanted in the mammary fat pad and allowed to grow to a starting size (small ˜100 mm^3 tumors for E0771, large ˜200 mm^3 tumors for 4T1) over ˜2 weeks. To ensure that tumors in the two groups were of similar growth rates, the treatment with saline or DAL was begun in pairs of tumors with similar sizes and growth times. Tumor volumes were measured every other day until the tumors reached an average of ˜10 mm in diameter. Tumor growth was quantified with the doubling rate, and calculated by fitting an exponential growth curve to the data for tumor size versus time.
# As shown in Example 3, DAL has an antivascular effect in orthotopic mammary tumors in mice. Thus, the antitumor effect of DAL was next assessed. […] The effect of DAL on the growth of orthotopic 4T1 and E0771 mammary tumors with daily treatment of DAL or saline was evaluated (FIG. 4A). 37.5 mg/kg of DAL was used for these experiments based on the pharmacokinetics results as well as in vitro and in vivo data. […]
# [4] = Pharmacokinetics after intraperitoneal administration; assay type: in vivo; conditions: after i.p. dosing, 100% DMSO formulation, male CD-1 mice
# Description: FIG. 8 is a graph showing pharmacokinetic parameters after intraperitoneal administration of DAL.
# HUVEC = test: Scratch wound-healing motility assay; assay type: cell-based, human; conditions: HUVEC monolayer, DAL 5 μM, 24 hours after wounding
# Procedure: For F-actin visualization, HUVECs were plated and treated with saline or DAL (10 μM) for three hours. After fixing and permeabilizing these cultured cells, the cells were subsequently stained with phalloidin. […] Existing cordlike structures, when exposed to 10 μM of DAL for 3 hours, were also disrupted. […] HUVEC monolayers were disrupted mechanically with a pipette tip and the migration of cells to “heal” the wound was monitored using microscopy.
# To assess whether DAL affects EC functions, in vitro models of vascular network formation from HUVECs were used. After overnight cultivation in matrigel, HUVECs spontaneously assemble into cord-like structures that resemble vascular networks. […] Since DAL affects actin cytoskeleton assembly, the effect of DAL on cell motility was next assessed. A scratch wound assay was utilized to study HUVEC motility based on the healing rate of a wounded monolayer.
# Rac1 = target: T1, Rac1 (Homo sapiens, UniProt P63000); test: Rac1 activation pull-down assay (PAK-PBD) in HUVECs; assay type: cell-based; conditions: various concentrations 30 minutes, VEGF stimulated
# T1 construct: endogenous in cells; host or cells: HUVEC
# Procedure: Rac1 and cdc42 activities were measured with a Rac1 (BK035) activation assay biochem kit (Cytoskeleton) according to the manufacturer protocol. In brief, human umbilical vein endothelial cells (HUVECs) were bovine brain extract-starved for 12 hours in 1% FBS-EGM (Lonza) and pretreated with various concentrations of DAL for 30 minutes at 37° C. The HUVECs were then stimulated with VEGF at […] for 15 minutes at 37° C. After stimulation, the cells were immediately incubated on ice, washed twice with PBS, and lysed with lysis buffer. The lysates were pre-cleared and added with 15 μl of PAK-PBD beads for pull-down of activated Rac1 or cdc42. After rocking at 4° C. for 1 hour, the beads were washed once and boiled at 100° C. for 2 minutes. The protein lysates were then resolved in a 8-16% gradient gel (Invitrogen) and transferred to a PVDF membrane. Primary antibodies (anti-Rac1, 1:1000, cytoskeleton or anti-cdc42, 1:1000, cell signaling) were added to bind to the protein overnight at 4° C., followed by incubation with HRP-conjugated secondary antibodies. Protein activity was measured by the standard ECL method (Amersham).
# Without wishing to be bound by theory, DAL brings about its antivascular effects by destabilizing cell adhesion through the actin cytoskeleton. […] Therefore, potential targets of DAL in signaling pathways involved in actin remodeling were evaluated. […]
smiles,measurement,setting,value
"CC1(C)C=CC2=C(O1)C(=O)c1ccccc1C2=O [DAL, dehydro-alpha-lapachone]",effects on the vasculature in adult fish,[1],did not show any effects
same,anastomotic bridges at the amputation plane,[2]; 9 days after amputation,did not find such bridges
same,anastomosis and plexus formation of regenerating vessels,[2]; caudal fin after amputation,defects in anastomosis and plexus formation
same,weight loss or other signs of toxicity,[3],no weight loss or other noted signs of toxicity
same,half-life in plasma,[4],1.7 h
same,wound healing / cell motility,HUVEC,did not move and failed to close the wound; also recorded: slowed healing
same,Rac1 activity,Rac1,decreased Rac1 activity in a concentration-dependent manner
